Reference: ChEMBL document CHEMBL1142224, “Mapping the elusive neonicotinoid binding site” (Proc Natl Acad Sci U S A, 2007)

Columns and labels:
[1] = Displacement of [3H]ACE from Aplysia AChBP expressed in HEK293S cells by scintillation proximity assay; assay type: cell-based
[2] = Displacement of [3H]EPI from Aplysia AChBP expressed in HEK293S cells by scintillation proximity assay; assay type: cell-based
[3] = Inhibition of [3H]1-((5-azido-6-chloropyridin-3-yl)methyl)-3-methyl-2-nitroguanidine incorporation into AchBP assessed as protection of photoaffinity labeling at 500 pmol; parameters: scale not given: the % may be the effect or the level left

SMILES	Ki [1]	Ki [2]	Activity [3]
N#C/N=C1\SCCN1Cc1ccc(Cl)nc1 [THIACLOPRID]	0.0099 µM	0.0084 µM	–
N=C1SCCN1Cc1ccc(Cl)nc1 [DESCYANOTHIACLOPRID]	0.01 µM	0.0085 µM	–
O=[N+]([O-])/N=C1\NCCN1Cc1ccc(Cl)nc1 [IMIDACLOPRID]	0.267 µM	0.18 µM	50%
CN/C(=N\[N+](=O)[O-])NCc1cnc(Cl)s1 [CLOTHIANIDINE]	0.808 µM	0.574 µM	–
N#C/N=c1\sccn1Cc1cnc(Cl)c(N=[N+]=[N-])c1	0.0023 µM	0.0017 µM	–
CN1CCC[C@H]1c1cccnc1 [NICOTINE]	0.415 µM	0.26 µM	–
N=C1NCCN1Cc1ccc(Cl)nc1 [DESNITROIMIDACLOPRID]	0.056 µM	0.044 µM	–
CCN(Cc1ccc(Cl)nc1)/C(=C/[N+](=O)[O-])NC [NITENPYRAM]	0.335 µM	0.18 µM	–
C/C(=N\C#N)N(C)Cc1ccc(Cl)nc1 [ACETAMIPRID]	0.041 µM	0.019 µM	–
Clc1ccc(C2CC3CCC2N3)cn1 (racemic) [EPIBATIDINE]	0.014 µM	0.0086 µM	–
